Data taken from US20210393547A1, “USE OF EMODIN IN TREATING RETINAL ISCHEMIA OR A DISEASE, CONDITION, OR DISORDER ASSOCIATED WITH RETINAL ISCHEMIA” (priority 2020, published 2021).

What was measured:
β-catenin = assay: Western blot of ischemic retina, β-catenin to β-actin ratio; assay type: in vivo, rat; conditions: n=6, mean±S.E
Method: (§1) Emodin was purchased from Sigma-Aldrich (E7881; 90%; storage at 2-8° C.; from Frangula bark; St. Louis, Mo., United States). Drug administration for different procedures, namely ERG, fluorogold RGC labelling, cresyl violet retinal staining and Western blot assays, were described in Tables 3 to 6. Vehicle or emodin (5 μL) was administered via an intravitreous injection route so that these agents were then able to be directly diffused to the target. Emodin was dissolved in vehicle (DMSO:distilled water=1:3). The defined final cellular concentrations of administered drug were 0.25 or 0.5 μM, which were achieved after 40 times dilution from the stock concentrations, namely 10 or 20 μM, based on an arbitrary definition of the vitreous volume as 200 μL. To test a wider range of dose-response, 4 μM of emodin was thus added in the animal experiments. […] Denatured proteins were then obtained using lysis buffer (mammalian protein extraction reagent; […]), the samples were then sonicated and quantified to give equivalent amounts of 30 μg/30 μl/well. […] Finally, the PVDF membranes were then developed using an enhanced chemiluminescent analysis system ([…]) and scanned using an imager (Amersham Imager; LifeSciences); the amount of each protein was quantified according to scanning densitometry.

VEGF = assay: Western blot of ischemic retina, VEGF to β-actin ratio; assay type: in vivo, rat; conditions: n=6, mean±S.E
Method: as §1

SMILES: Cc1cc(O)c2c(c1)C(=O)c1cc(O)cc(O)c1C2=O [emodin, 6-methyl-1,3,8-trihydroxyanthraquinone]
- ratio of β-catenin to β-actin protein level (β-catenin; Emo10+IR: pre-ischemic intravitreous 10 μM emodin, Sham normalized to 1, Vehicle+IR 1.64): 1.18±0.24
- ratio of β-catenin to β-actin protein level (β-catenin; Emo20+IR: pre-ischemic intravitreous 20 μM emodin, P=0.02 vs Vehicle+IR, Sham normalized to 1): 1.00±0.19
- ratio of VEGF to β-actin protein level (VEGF; Emo10+IR: pre-ischemic intravitreous 10 μM emodin, Sham normalized to 1, Vehicle+IR 7.67): 3.99±2.86
- ratio of VEGF to β-actin protein level (VEGF; Emo20+IR: pre-ischemic intravitreous 20 μM emodin, P=0.03 vs Vehicle+IR, Sham normalized to 1): 1.23±0.44
